Entries after “also recorded” stand apart in the source; their conditions may differ.
What was measured:
[1] = target: T1, p38β (Homo sapiens, UniProt Q15759); test: DSF, binding to p38β; settings: DSF melting temperature, concentration series
T1 construct: HA (N); made in house; host or cells: E. coli BL21

[2] = tested on: IL-8-directed neutrophil TEM through HMVECLs; test: Neutrophil transendothelial migration (TEM) assay; assay type: cell-based, human; settings: 10 μM, HMVECLs preincubated at 39.5° C. for 6 h
[3] = tested on: LPS-induced cytokine expression in PMA-differentiated THP1 cells; test: LPS-induced cytokine expression, PCR-based cytokine array; assay type: cell-based, human; settings: 25 μM SB203580 or 10, 25, or 100 μM UM101
[4] = tested on: p38-dependent phosphorylation of MK2 and Stat-1 in HeLa cells; test: Inhibition of substrate phosphorylation (immunoblot); assay type: cell-based, human; settings: 10 μM SB203580 or 50 μM UM101 for 30 min
Description: Cell extracts prepared in RIPA buffer containing protease and phosphatase inhibitors were resolved by SDS-PAGE, transferred to PVDF membrane, blocked with 5% nonfat dry milk, probed with primary antibodies against phosphorylated MK2 and Stat-1, and total p38α as a loading control. Bands were detected using secondary antibodies conjugated to infrared fluorophores and infrared fluorescence imaging (Odyssey; LICOR).

[5] = tested on: LPS/hyperthermia-induced ALI in CD1 mice; test: Mouse i.t. LPS/FRH-induced acute lung injury model; settings: single i.p. injection of 100-1000 μg UM101, 1000 μg UM60 or 1000 μg SB203580, 30 min before i.t. 50 μg LPS and hyperthermia

T1 sequence (Q15759 whole entry): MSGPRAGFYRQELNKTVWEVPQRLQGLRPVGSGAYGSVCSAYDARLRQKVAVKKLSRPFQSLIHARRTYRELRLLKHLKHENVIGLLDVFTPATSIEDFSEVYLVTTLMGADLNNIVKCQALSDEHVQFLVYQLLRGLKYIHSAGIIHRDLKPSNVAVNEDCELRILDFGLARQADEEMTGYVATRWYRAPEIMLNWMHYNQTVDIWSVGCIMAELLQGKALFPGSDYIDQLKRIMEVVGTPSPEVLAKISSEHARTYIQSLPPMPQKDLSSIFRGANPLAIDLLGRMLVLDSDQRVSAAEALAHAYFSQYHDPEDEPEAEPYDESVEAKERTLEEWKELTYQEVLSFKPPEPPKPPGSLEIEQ

**Q.** For `C[S+]([O-])c1ccc(-c2nc(-c3ccncc3)c(-c3ccc(F)cc3)[nH]2)cc1` (stereo not drawn) [SB203580, reference compound], which “stabilization of p38β in DSF (binding), in words” value [1] is on record?
**A.** stabilized both p38α and p38β

**Q.** What about the “reduction of hyperthermia-augmented neutrophil TEM” value [2] of the same molecule?
**A.** 84%

**Q.** And the “LPS-stimulated genes of the array (16) whose expression was inhibited, in words” value [3]?
**A.** inhibited expression of seven

**Q.** And the “anisomycin-stimulated phosphorylation of MK2, in words” value [4]?
**A.** failed to completely block MK2 phosphorylation; also recorded: reduced

**Q.** And the “anisomycin-stimulated phosphorylation of Stat-1, in words” value [4]?
**A.** reduced

**Q.** And the “mice that died within 24 h” value [5]?
**A.** one of six
